Assay results from ChEMBL document CHEMBL5715937, “In vitro activity of Bcr-Abl inhibitors AMN107 and BMS-354825 against clinically relevant imatinib-resistant Abl kinase domain mutants” (Cancer Res, 2005).
Calls of active or inactive are those of the source. The rule behind the calls is not given here.

Legend:
[1] = Inhibition of BCR-ABL Y253H mutant (unknown origin) expressed in mouse BaF3 cells assessed as inhibition of cell growth incubated for 72 hrs by […] CellTiter96 viability analysis
[2] = Inhibition of BCR-ABL E255K mutant (unknown origin) expressed in mouse BaF3 cells assessed as inhibition of cell growth incubated for 72 hrs by […] CellTiter96 viability analysis
[3] = Inhibition of BCR-ABL E255V mutant (unknown origin) expressed in mouse BaF3 cells assessed as inhibition of cell growth incubated for 72 hrs by […] CellTiter96 viability analysis
[4] = Inhibition of BCR-ABL F311L mutant (unknown origin) expressed in mouse BaF3 cells assessed as inhibition of cell growth incubated for 72 hrs by […] CellTiter96 viability analysis
[5] = Inhibition of BCR-ABL F317L mutant (unknown origin) expressed in mouse BaF3 cells assessed as inhibition of cell growth incubated for 72 hrs by […] CellTiter96 viability analysis
[6] = Inhibition of BCR-ABL H396P mutant (unknown origin) expressed in mouse BaF3 cells assessed as inhibition of cell growth incubated for 72 hrs by […] CellTiter96 viability analysis
[7] = Cytotoxicity against mouse BaF3 cells assessed as reduction in cell proliferation incubated for 72 hrs by […] CellTiter96 viability analysis; type: toxicity
[8] = Inhibition of BCR-ABL phosphorylation in mouse BaF3 cells incubated for 3 hrs by immunoblotting analysis; type: functional, cell-based
[9] = Inhibition of BCR-ABL V379l mutant (unknown origin) expressed in mouse BaF3 cells assessed as inhibition of tyrosine phosphorylation incubated for 3 hrs by immunoblotting analysis; type: cell-based; details: BaF3, 3 h
BaF3 [10] = assay: Induction of apoptosis in mouse BaF3 cells expressing wild-type Bcr-Abl at 30 to 300 nM incubated for 72 hrs by Annexin V-phycoerythrin and 7-amino-actinomycin D staining based PCA instrument analysis; type: functional, cell-based; details: dose 30-300 nM
BaF3 [11] = assay: Induction of apoptosis in mouse BaF3 cells expressing Bcr-Abl M244V mutant at 30 to 300 nM incubated for 72 hrs by Annexin V-phycoerythrin and 7-amino-actinomycin D staining based PCA instrument analysis; type: functional, cell-based; details: dose 30-300 nM
BaF3 [12] = assay: Induction of apoptosis in mouse BaF3 cells expressing Bcr-Abl G250E mutant at 30 to 300 nM incubated for 72 hrs by Annexin V-phycoerythrin and 7-amino-actinomycin D staining based PCA instrument analysis; type: functional, cell-based; details: dose 30-300 nM
BaF3 [13] = assay: Induction of apoptosis in mouse BaF3 cells expressing Bcr-Abl F311L mutant at 30 to 300 nM incubated for 72 hrs by Annexin V-phycoerythrin and 7-amino-actinomycin D staining based PCA instrument analysis; type: functional, cell-based; details: dose 30-300 nM
BaF3 [14] = assay: Induction of apoptosis in mouse BaF3 cells expressing Bcr-Abl M351T mutant at 30 to 300 nM incubated for 72 hrs by Annexin V-phycoerythrin and 7-amino-actinomycin D staining based PCA instrument analysis; type: functional, cell-based; details: dose 30-300 nM
BaF3 [15] = assay: Induction of apoptosis in mouse BaF3 cells expressing Bcr-Abl F359V mutant at 30 to 300 nM incubated for 72 hrs by Annexin V-phycoerythrin and 7-amino-actinomycin D staining based PCA instrument analysis; type: functional, cell-based; details: dose 30-300 nM
BaF3 [16] = assay: Induction of apoptosis in mouse BaF3 cells expressing Bcr-Abl H396P mutant at 30 to 300 nM incubated for 72 hrs by Annexin V-phycoerythrin and 7-amino-actinomycin D staining based PCA instrument analysis; type: functional, cell-based; details: dose 30-300 nM
BaF3 [17] = assay: Induction of apoptosis in mouse BaF3 cells expressing Bcr-Abl H396R mutant at 30 to 300 nM incubated for 72 hrs by Annexin V-phycoerythrin and 7-amino-actinomycin D staining based PCA instrument analysis; type: functional, cell-based; details: dose 30-300 nM
BaF3 [18] = assay: Induction of apoptosis in mouse BaF3 cells expressing Bcr-Abl Y253H mutant assessed as increase in apoptotic cells at 1500 nM incubated for 72 hrs by Annexin V-phycoerythrin and 7-amino-actinomycin D staining based PCA instrument analysis relative to control; type: functional
BaF3 [19] = assay: Induction of apoptosis in mouse BaF3 cells expressing Bcr-Abl E255K mutant assessed as increase in apoptotic cells at 1500 nM incubated for 72 hrs by Annexin V-phycoerythrin and 7-amino-actinomycin D staining based PCA instrument analysis relative to control; type: functional
BaF3 [20] = assay: Induction of apoptosis in mouse BaF3 cells expressing Bcr-Abl T315l mutant assessed as increase in apoptotic cells at 1500 nM incubated for 72 hrs by Annexin V-phycoerythrin and 7-amino-actinomycin D staining based PCA instrument analysis relative to control; type: functional
BaF3 [21] = assay: Induction of apoptosis in mouse BaF3 cells expressing Bcr-Abl F317L mutant assessed as increase in apoptotic cells at 1500 nM incubated for 72 hrs by Annexin V-phycoerythrin and 7-amino-actinomycin D staining based PCA instrument analysis relative to control; type: functional
BaF3 [22] = assay: Induction of apoptosis in mouse BaF3 cells expressing Bcr-Abl M351T mutant assessed as increase in apoptotic cells at 1500 nM incubated for 72 hrs by Annexin V-phycoerythrin and 7-amino-actinomycin D staining based PCA instrument analysis relative to control; type: functional
BaF3 [23] = assay: Induction of apoptosis in mouse BaF3 cells expressing Bcr-Abl V379l mutant assessed as increase in apoptotic cells at 1500 nM incubated for 72 hrs by Annexin V-phycoerythrin and 7-amino-actinomycin D staining based PCA instrument analysis relative to control; type: functional
BaF3 [24] = assay: Induction of apoptosis in mouse BaF3 cells expressing Bcr-Abl H396R mutant assessed as increase in apoptotic cells at 1500 nM incubated for 72 hrs by Annexin V-phycoerythrin and 7-amino-actinomycin D staining based PCA instrument analysis relative to control; type: functional
BaF3 [25] = assay: Induction of apoptosis in mouse BaF3 cells at 30 to 1500 nM incubated for 72 hrs by Annexin V-phycoerythrin and 7-amino-actinomycin D staining based PCA instrument analysis relative to control; type: toxicity, cell-based; details: baf3, 72 h, 1.5 µM, dose 30-1500 nM
BaF3 [26] = assay: Induction of apoptosis in mouse BaF3 cells expressing Bcr-Abl T315I mutant at 30 to 1500 nM incubated for 72 hrs by Annexin V-phycoerythrin and 7-amino-actinomycin D staining based PCA instrument analysis relative to control; type: functional, cell-based; details: dose 30-1500 nM
cells [27] = details: Mus musculus, BaF3, 3 h
cells [28] = details: Mus musculus, BaF3, 3 h; remark: listed apart in the source
cells [29] = details: Mus musculus, BaF3, 3 h; remark: listed apart in the source
cells [30] = details: Mus musculus, BaF3, 3 h; remark: listed apart in the source
cells [31] = details: Mus musculus, BaF3, 3 h; remark: listed apart in the source
cells [32] = details: Mus musculus, BaF3, 3 h; remark: listed apart in the source
[33] = BaF3, time 72 hrs, condition chronic myelogenous leukemia

Structure (SMILES): Cc1cn(-c2cc(NC(=O)c3ccc(C)c(Nc4nccc(-c5cccnc5)n4)c3)cc(C(F)(F)F)c2)cn1 [NILOTINIB]
- IC50 ([1]; BaF3, 72 h): 0.45 µM
- IC90 [1, 33]: 1.02 µM
- IC50 ([2]; BaF3, 72 h): 0.2 µM
- IC90 [2, 33]: 0.415 µM
- IC50 ([3]; BaF3, 72 h): 0.43 µM
- IC90 [3, 33]: 2 µM
- IC50 ([4]; BaF3, 72 h): 0.023 µM
- IC90 [4, 33]: 0.048 µM
- IC50 ([5]; BaF3, 72 h): 0.05 µM
- IC90 [5, 33]: 0.116 µM
- IC50 ([6]; BaF3, 72 h): 0.041 µM
- IC90 [6, 33]: 0.069 µM
- IC50 at 72 h [7]: > 2 µM
- IC50 [8]: Not Active
- IC50 [9]: 0.015 µM
- Activity (BaF3 [10]): Active
- Activity (BaF3 [11]): Active
- Activity (BaF3 [12]): Active
- Activity (BaF3 [13]): Active
- Activity (BaF3 [14]): Active
- Activity (BaF3 [15]): Active
- Activity (BaF3 [16]): Active
- Activity (BaF3 [17]): Active
- Activity (BaF3 [18]): 65%
- Activity (BaF3 [19]): >90%
- Activity (BaF3 [20]): 3%
- Activity (BaF3 [21]): >90%
- Activity (BaF3 [22]): >90%
- Activity (BaF3 [23]): >90%
- Activity (BaF3 [24]): >90%
- Activity (BaF3 [25]): Non-Toxic
- Activity (BaF3 [26]): inactive
- IC50 (cells [27]): > 5 µM
- IC50 (cells [28]): 0.008 µM
- IC50 (cells [29]): 0.07 µM
- IC50 (cells [30]): 0.25 µM
- IC50 (cells [31]): 0.008 µM
- IC50 (cells [32]): 0.043 µM
